Assay results published in BigSolDB 2.1.

N[C@H](Cc1c[nH]c2ccccc12)C(=O)O
solubility (mole fraction)
Details	in DMF	in ethanol	in isopropanol	in methanol	in water
283.15 K	0.00714	9.34e-05	1.29e-05	0.000179	0.00146
288.15 K	0.00749	0.000112	1.57e-05	0.000217	0.00159
293.15 K	0.00793	0.000135	1.9e-05	0.000261	0.00175
298.15 K	0.00834	0.000165	2.26e-05	0.000303	0.00192
303.15 K	0.00872	0.000202	2.64e-05	0.000358	0.00209
308.15 K	0.00912	0.000243	3.09e-05	0.000421	0.00227
313.15 K	0.00954	0.00029	3.62e-05	0.000489	0.00245
318.15 K	0.01	0.000348	4.16e-05	0.000575	0.00267
323.15 K	0.0104	0.00041	4.78e-05	0.000671	0.00288
328.15 K	0.0108	0.000484	5.44e-05	0.000779	0.00309
333.15 K	0.0113	0.000567	6.22e-05	0.000894	0.00332
